Results on one compound are retold here after publication PMC11990103, “Anticancer Activity and Safety Profile of Novel 1-(4-Fluorophenoxyacetyl)-4-substituted Thio/Semicarbazide Derivatives” (Molecules, 2025).

In assay [1] the test system is LNCaP prostate cancer cell line. The experiment in a line: qRT-PCR relative gene expression. The class given is cell-based, human. Conditions: 24 h, concentration corresponding to IC50. The procedure: (§1) An analysis was conducted to examine the impact of the thiosemicarbazide AB2 on LNCaP prostate cancer cells and G-361 melanoma cells, focusing on the expression of genes associated with oxidative stress, cell cycle regulation, DNA repair, and apoptosis. Superoxide dismutase (SOD2), catalase (CAT), and glutathione peroxidase 1 (GPX1) are critical antioxidant enzymes that protect cells from oxidative stress by neutralizing reactive oxygen species (ROS) and mitigating potential cellular damage. […] This indicates heightened activation of cell cycle arrest mechanisms, given that p21 acts as an important inhibitor of cyclin-dependent kinases essential for cell cycle progression. […] The contrasting alterations in CDKN1A and CYCD indicate a transition toward cell cycle arrest in response to AB2 (Figure 9B). The next assessed panel of genes includes those involved in DNA damage sensing and repair, specifically ATM and ATR. ATM and ATR are fundamental components of the DNA damage response, responsible for the detection and repair of double-strand and single-strand DNA breaks, respectively.
(§2) The last assessed panel of genes includes genes involved in the process of apoptosis. BAX is a protein that enhances apoptosis, a natural to eliminate damaged or cancer cells. On the other hand, BCL-2 prevents apoptosis, helping cancer cells survive and resist therapy. […] The decrease in BCL-2 expression, along with stable BAX levels, led to a higher BAX/BCL-2 ratio in comparison to the control.
(§3) The relative gene expression was quantitatively assessed using real-time PCR. […] Next, for cell lysis the 1 mL of TRIzol™ reagent (Invitrogen, Carlsbad, CA, USA) was added. RNA was isolated according to the Chomczynski and Sacchi method. The RNA was reverse transcribed using NG dART RT-PCR reagents (EURx, Gdańsk, Poland) according to the manufacturer’s instructions. Following the manufacturer’s recommendation, the qPCR reaction was conducted in triplicate in a 7500 fast real-time PCR machine (ThermoFisher, Waltham, MA, USA) using Fast SG/ROX qPCR Master Mix (2×) (EURx, Gdansk, Poland). 18SRNA and BACT were used as reference genes. Gene expression was evaluated using qRT-PCR and ΔΔCt. Statistical analysis was conducted using RQ values (RQ = […]).

A further assay relates to G-361 melanoma cell line. As to the kind of experiment: qRT-PCR relative gene expression. Format: cell-based, human. The following applies: G-361, 24 h, concentration corresponding to IC50. The procedure: as §1, §2, §3

Molecules are shown by their SMILES.

In the case of `O=C(COc1ccc(F)cc1)NNC(=S)Nc1ccccc1Cl` [AB2], in assay [1], the ATM gene expression result is given as “downregulated”, the ATR gene expression result is reported as “downregulated”, the BAX gene expression entry is given as “did not differ from the control cultures” and the “BAX/BCL-2 ratio in comparison to the control” value is on record as “higher”. In assay [1], the BCL-2 gene expression entry is listed as “significantly downregulated”; the “CAT gene expression, increase” value is given as around 6 fold; the “CDKN1A (p21) gene expression” value was “significantly upregulated”; the “CYCD (cyclin D) gene expression” value is “notably downregulated”. Besides, in assay [1], the GPX1 gene expression result is on record as “moderate but significant rise”; the “SOD2 gene expression, increase compared to control” value was above 20 fold; the TP53 gene expression result is recorded as “significant downregulation”. Further, in the assay on G-361 melanoma cell line, the ATM gene expression entry is “downregulated”, the ATR gene expression entry was “downregulated”, the BAX gene expression entry is given as “did not differ from the control cultures” and the “BAX/BCL-2 ratio in comparison to the control” value is reported as “higher”. Moreover, in the assay on G-361 melanoma cell line, the BCL-2 gene expression entry is “significantly downregulated”; the “CAT gene expression, increase” value was “approximately 8 fold”; the “CDKN1A (p21) gene expression” value is “significantly upregulated”; the “CYCD (cyclin D) gene expression” value is given as “notably downregulated”. Further, in the assay with G-361 melanoma cell line, the GPX1 gene expression result was “moderate but significant rise”; the “SOD2 gene expression, rise compared to control” value was above 100 fold; the TP53 gene expression result is recorded as “significant downregulation”.
